Measurements reported in US5191079A, “Quinolinecarboxylic acid derivatives” (priority 1990, dated 1993).
Converted amounts (≈) assume the structure as drawn. Read-outs that look alike come from different tables or passages of the source.

Key:
Format in all cases: cell-based
[1] = tested on: Acinetobacter calcoaceticus Ac 54; assay: MIC, Experiment 1; details: AC54, A. calcoaceticus Ac 54, Gram -, read-out: Min. inhib. concentr. (MIC)
Protocol: (§1) The compounds of the present invention (B, E, G, H, M, N, O, P and Q) were each dissolved in dimethylsulfoxide to prepare a solution of 5000 μg/ml in concentration. The compounds of the present invention (I, J and K) and the known compound (Y) were each dissolved in sterilized distilled water to prepare a solution of 5000 μg/ml in concentration. Each solution was diluted with sterilized distilled water to prepare a standard solution with a concentration of each test compound: 1000 μg/ml. The test was carried out by a method as appointed by Japan Society of Chemotherapy [cf. Chemotherapy, 29, 76-79 (1981), TOKYO].
(§2) As to Streptococcus pneumoniae and Streptococcus pyogenes, Brain heart infusion broth (manufactured by DIFCO) was used as the medium for the preculture thereof, and a heart infusion agar medium containing 5% defibrinated horse blood (manufactured by Nissui Seiyaku K. K., Japan) was used as the medium for the measurement of minimum inhibitory concentration (MIC). As to other microorganisms, a sensitivity test broth (manufactured by Nissui Seiyaku K. K.) was used as the medium for the preculture thereof, and a sensitivity test agar medium (manufactured by Nissui Seiyaku K. K.) was used as the medium for the measurement of MIC.

Bacillus cereus IAM 1029 = assay: MIC, Experiment 1; details: IAM1029, B. cereus IAM 1029, Gram +, read-out: Min. inhib. concentr. (MIC)
Protocol: as §1, §2

[2] = tested on: Bacillus subtilis ATCC 6633; assay: MIC, Experiment 1; details: ATCC6633, B. subtilis ATCC 6633, Gram +, read-out: Min. inhib. concentr. (MIC)
Protocol: as §1, §2

Enterobacter cloacae 963 = assay: MIC, Experiment 1; details: E. cloacae 963, Gram -, read-out: Min. inhib. concentr. (MIC)
Protocol: as §1, §2

[3] = tested on: Escherichia coli NIHJ JC-2; assay: MIC, Experiment 1; details: NIHJJC2, E. coli NIHJ JC-2, Gram -, read-out: Min. inhib. concentr. (MIC)
Protocol: as §1, §2

[4] = tested on: Klebsiella pneumoniae PCI-602; assay: MIC, Experiment 1; details: PCI602, K. pneumoniae PCI-602, Gram -, read-out: Min. inhib. concentr. (MIC)
Protocol: as §1, §2

[5] = tested on: Micrococcus luteus ATCC 9341; assay: MIC, Experiment 1; details: ATCC9341, M. luteus ATCC 9341, Gram +, read-out: Min. inhib. concentr. (MIC)
Protocol: as §1, §2

[6] = tested on: Proteus mirabilis IFO 3849; assay: MIC, Experiment 1; details: IFO3849, P. mirabilis IFO 3849, Gram -, read-out: Min. inhib. concentr. (MIC)
Protocol: as §1, §2

[7] = tested on: Pseudomonas aeruginosa NCTC 10490; assay: MIC, Experiment 1; details: NCTC10490, P. aeruginosa NCTC 10490, Gram -, read-out: Min. inhib. concentr. (MIC)
Protocol: as §1, §2

[8] = tested on: Staphylococcus aureus ATCC 9144; assay: MIC, Experiment 1; details: ATCC9144, S. aureus ATCC 9144, Gram +, read-out: Min. inhib. concentr. (MIC)
Protocol: as §1, §2

[9] = tested on: Staphylococcus aureus Cowan I (IID 975); assay: MIC, Experiment 1; details: IID975, S. aureus Cowan I (IID 975), Gram +, read-out: Min. inhib. concentr. (MIC)
Protocol: as §1, §2

[10] = tested on: Staphylococcus aureus FDA 209P JC-1; assay: MIC, Experiment 1; details: FDA209P, S. aureus FDA 209P JC-1, Gram +, read-out: Min. inhib. concentr. (MIC)
Protocol: as §1, §2

[11] = tested on: Staphylococcus aureus FDA 243; assay: MIC, Experiment 1; details: FDA243, S. aureus FDA 243, Gram +, read-out: Min. inhib. concentr. (MIC)
Protocol: as §1, §2

[12] = tested on: Staphylococcus aureus IID 803; assay: MIC, Experiment 1; details: IID803, S. aureus IID 803, Gram +, read-out: Min. inhib. concentr. (MIC)
Protocol: as §1, §2

[13] = tested on: Staphylococcus aureus MS-353; assay: MIC, Experiment 1; details: MS353, S. aureus MS-353, Gram +, read-out: Min. inhib. concentr. (MIC)
Protocol: as §1, §2

[14] = tested on: Staphylococcus aureus Terajima (IID 670); assay: MIC, Experiment 1; details: IID670, S. aureus Terajima (IID 670), Gram +, read-out: Min. inhib. concentr. (MIC)
Protocol: as §1, §2

[15] = tested on: Streptococcus pneumoniae IID 552; assay: MIC, Experiment 1; details: IID552, S. pneumoniae IID 552, Gram +, agar with 5% defibrinated horse blood, read-out: Min. inhib. concentr. (MIC)
Protocol: as §1, §2

[16] = tested on: Streptococcus pneumoniae IID 554; assay: MIC, Experiment 1; details: IID554, S. pneumoniae IID 554, Gram +, agar with 5% defibrinated horse blood, read-out: Min. inhib. concentr. (MIC)
Protocol: as §1, §2

[17] = tested on: Streptococcus pyogenes Cook; assay: MIC, Experiment 1; details: S. pyogenes Cook, Gram +, agar with 5% defibrinated horse blood, read-out: Min. inhib. concentr. (MIC)
Protocol: as §1, §2

[18] = tested on: Streptococcus pyogenes Su; assay: MIC, Experiment 1; details: S. pyogenes Su, Gram +, agar with 5% defibrinated horse blood, read-out: Min. inhib. concentr. (MIC)
Protocol: as §1, §2

[19] = tested on: Streptococcus pyogenes Sv; assay: MIC, Experiment 1; details: S. pyogenes Sv, Gram +, agar with 5% defibrinated horse blood, read-out: Min. inhib. concentr. (MIC)
Protocol: as §1, §2

[20] = tested on: clinically isolated Enterococcus faecalis; assay: In vitro antibacterial activity against clinical isolates, Experiment 2; details: 25 clinical strains E. faecalis; for MIC50: 50% of strains, read-out: MIC50; for MIC90: 90% of strains, read-out: MIC90
Protocol: (§3) The above solutions were then diluted with sterilized distilled water to prepare a standard solution with a concentration of the test compound: 1000 μg/ml each.
(§4) For the preculture of each microorganism, there was used as the medium a sensitivity test broth (manufactured by Nissui Seiyaku K. K., Japan), and for the measurement of MIC, there was used a sensitivity test agar medium (manufactured by Nissui Seiyaku K. K.).
(§5) The clinically isolates used above were isolated from Nov. 1988 to Jun. 1989 and were obtained from Research Section, Tokyo Clinical Research Center.

[21] = tested on: clinically isolated Enterococcus faecium; assay: as above
Protocol: as §3, §4, §5

[22] = 25 clinical strains E. faecium, 50% of strains, read-out: MIC50
[23] = 25 clinical strains E. faecium, 90% of strains, read-out: MIC90

SMILES | MIC [1] | MIC (Bacillus cereus IAM 1029) | MIC [2] | MIC (Enterobacter cloacae 963) | MIC [3] | MIC [4] | MIC [5] | MIC [6] | MIC [7] | MIC [8] | MIC [9] | MIC [10] | MIC [11] | MIC [12] | MIC [13] | MIC [14] | MIC [15] | MIC [16] | MIC [17] | MIC [18] | also measured
CC1CN(c2c(F)cc3c(=O)c(C(=O)O)c4scc5n4c3c2N(C)C5)CCO1 (stereo not drawn) [Compound (A), 9,1-(Methylimino)methano-7-fluoro-8-(2-methylmorpholino)-5-oxo-5H-thiazolo[3,2-a]quinoline-4-carboxylic acid] | ≤ 0.006 µg/mL | 0.013 µg/mL (≈ 0.0322 µM) | ≤ 0.006 µg/mL | 0.2 µg/mL (≈ 0.496 µM) | 0.1 µg/mL (≈ 0.248 µM) | ≤ 0.006 µg/mL | 0.1 µg/mL (≈ 0.248 µM) | 0.2 µg/mL (≈ 0.496 µM) | 0.39 µg/mL (≈ 0.967 µM) | 0.013 µg/mL (≈ 0.0322 µM) | 0.013 µg/mL (≈ 0.0322 µM) | 0.013 µg/mL (≈ 0.0322 µM) | ≤ 0.006 µg/mL | ≤ 0.006 µg/mL | 0.013 µg/mL (≈ 0.0322 µM) | 0.013 µg/mL (≈ 0.0322 µM) | 0.013 µg/mL (≈ 0.0322 µM) | 0.05 µg/mL (≈ 0.124 µM) | 0.025 µg/mL (≈ 0.062 µM) | 0.025 µg/mL (≈ 0.062 µM) | MIC [19]: 0.025 µg/mL (≈ 0.062 µM); MIC [20]: 0.025 to 3.13 µg/mL (≈ 0.062 to 7.76 µM); MIC50 [20]: 0.1 µg/mL (≈ 0.248 µM); MIC90 [20]: 3.13 µg/mL (≈ 7.76 µM); MIC ([21]; 25 clinical strains E. faecium): 0.05 to 6.25 µg/mL (≈ 0.124 to 15.5 µM); MIC50 [21, 22]: 0.78 µg/mL (≈ 1.93 µM); MIC90 [21, 23]: 3.13 µg/mL (≈ 7.76 µM)
CN1Cc2csc3c(C(=O)O)c(=O)c4cc(F)c(N5CCOC(CO)C5)c1c4n23 (stereo not drawn) [Compound (B), 9,1-(Methylimino)methano-7-fluoro-8-(2-hydroxymethylmorpholino)-5-oxo-5H-thiazolo[3,2-a]quinoline-4-carboxylic acid] | ≤ 0.006 µg/mL | 0.025 µg/mL (≈ 0.0596 µM) | ≤ 0.006 µg/mL | 0.2 µg/mL (≈ 0.477 µM) | 0.1 µg/mL (≈ 0.238 µM) | ≤ 0.006 µg/mL | 0.1 µg/mL (≈ 0.238 µM) | 0.39 µg/mL (≈ 0.93 µM) | 0.39 µg/mL (≈ 0.93 µM) | ≤ 0.006 µg/mL | 0.013 µg/mL (≈ 0.031 µM) | 0.013 µg/mL (≈ 0.031 µM) | ≤ 0.006 µg/mL | 0.013 µg/mL (≈ 0.031 µM) | 0.025 µg/mL (≈ 0.0596 µM) | 0.025 µg/mL (≈ 0.0596 µM) | 0.025 µg/mL (≈ 0.0596 µM) | 0.05 µg/mL (≈ 0.119 µM) | 0.025 µg/mL (≈ 0.0596 µM) | 0.025 µg/mL (≈ 0.0596 µM) | MIC [19]: 0.05 µg/mL (≈ 0.119 µM); MIC [20]: 0.05 to 3.13 µg/mL (≈ 0.119 to 7.46 µM); MIC50 [20]: 0.2 µg/mL (≈ 0.477 µM); MIC90 [20]: 3.13 µg/mL (≈ 7.46 µM); MIC50 [21]: 1.56 µg/mL (≈ 3.72 µM); MIC90 [21]: 6.25 µg/mL (≈ 14.9 µM); MIC ([21]; 25 clinical strains E. faecium): 0.1 to 25 µg/mL (≈ 0.238 to 59.6 µM)
CN1Cc2csc3c(C(=O)O)c(=O)c4cc(F)c(N5CCOC(CF)C5)c1c4n23 (stereo not drawn) [Compound (C), 9,1-(Methylimino)methano-7-fluoro-8-(2-fluoromethylmorpholino)-5-oxo-5H-thiazolo[3,2-a]quinoline-4-carboxylic acid] | ≤ 0.006 µg/mL | 0.013 µg/mL (≈ 0.0308 µM) | ≤ 0.006 µg/mL | 0.2 µg/mL (≈ 0.475 µM) | 0.2 µg/mL (≈ 0.475 µM) | ≤ 0.006 µg/mL | 0.1 µg/mL (≈ 0.237 µM) | 0.2 µg/mL (≈ 0.475 µM) | 0.39 µg/mL (≈ 0.925 µM) | 0.013 µg/mL (≈ 0.0308 µM) | 0.013 µg/mL (≈ 0.0308 µM) | 0.013 µg/mL (≈ 0.0308 µM) | ≤ 0.006 µg/mL | ≤ 0.006 µg/mL | 0.013 µg/mL (≈ 0.0308 µM) | 0.013 µg/mL (≈ 0.0308 µM) | 0.025 µg/mL (≈ 0.0593 µM) | 0.05 µg/mL (≈ 0.119 µM) | 0.05 µg/mL (≈ 0.119 µM) | 0.025 µg/mL (≈ 0.0593 µM) | MIC [19]: 0.05 µg/mL (≈ 0.119 µM); MIC [20]: 0.05 to 3.13 µg/mL (≈ 0.119 to 7.43 µM); MIC50 [20]: 0.1 µg/mL (≈ 0.237 µM); MIC90 [20]: 3.13 µg/mL (≈ 7.43 µM); MIC ([21]; 25 clinical strains E. faecium): 0.05 to 6.25 µg/mL (≈ 0.119 to 14.8 µM); MIC50 [21, 22]: 0.78 µg/mL (≈ 1.85 µM); MIC90 [21, 23]: 3.13 µg/mL (≈ 7.43 µM)
